Each compound was assayed against T1, CHK1 kinase (Homo sapiens, UniProt O14757) (assay: Flashplate method (CHK1), measurement of the CHK1 kinase activity). Conditions: class symbols; 'Affinity to receptors'.
T1 construct: glutathione S-transferase (GST); made in house; host or cells: Sf21 insect cells (S. frugiperda), baculovirus
T1 sequence (O14757 1-476): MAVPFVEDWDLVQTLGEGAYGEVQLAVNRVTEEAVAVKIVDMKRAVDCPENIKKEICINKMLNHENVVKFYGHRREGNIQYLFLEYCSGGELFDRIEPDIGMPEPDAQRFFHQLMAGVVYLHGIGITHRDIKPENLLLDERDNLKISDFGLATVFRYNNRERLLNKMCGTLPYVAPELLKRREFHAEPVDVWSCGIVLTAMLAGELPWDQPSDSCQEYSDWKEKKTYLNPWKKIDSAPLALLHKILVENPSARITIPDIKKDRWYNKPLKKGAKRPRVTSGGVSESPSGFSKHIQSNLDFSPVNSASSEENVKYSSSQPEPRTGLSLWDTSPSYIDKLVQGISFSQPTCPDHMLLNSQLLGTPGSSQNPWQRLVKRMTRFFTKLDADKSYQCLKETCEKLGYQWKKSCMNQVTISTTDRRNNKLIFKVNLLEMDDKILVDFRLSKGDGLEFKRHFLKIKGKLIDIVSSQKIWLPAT
Format: biochemical
Method: CHK1 kinase is expressed for the purposes of protein production in insect cells (Sf21; S. frugiperda) and subsequent purification by affinity chromatography as fusion protein with glutathione S-transferase in a baculovirus expression vector. The cultivation, infection and digestion of the cells as well as the purification of the fusion protein by column chromatography are carried out in accordance with manufacturer-oriented generic working instructions.
The kinase activity is measured using various available measurement systems. In the scintillation proximity method (Sorg et al., J. of. Biomolecular Screening, 2002, 7, 11-19), the flashplate method or the filter binding test, the radioactive phosphorylation of a protein or peptide as substrate is measured using radioactively labelled ATP (γ^32P-ATP, (γ^33P-ATP). In the case of the presence of an inhibitory compound, a reduced radioactive signal, or none at all, can be detected. Furthermore, homogeneous time-resolved fluorescence resonance energy transfer (HTR-FRET) and fluorescence polarisation (FP) technologies are useful as assay methods (Sills et al., J. of Biomolecular Screening, 2002, 191-214).
The test plates used are 384-well streptavidin-coated Flashplates Plus® from Perkin Elmer (Cat.No. SMP410A001PK). The assay plate is equilibrated with 75 μl of assay buffer per well 30 min before commencement of the experiment. The buffer is sucked out before commencement of the experiment, and the components of the kinase reaction described below are pipetted onto the plate.
CHK1 kinase, a biotinylated substrate peptide (for example CHKtide: […]), is incubated with radioactively labelled ATP in the presence and absence of test substances at 30° Celsius and a total volume of 50 μl. The reaction is terminated using 25 μl of a 0.2 M EDTA solution. After incubation for 30 min at room temperature, the supernatants are filtered off with suction, and the wells are washed three times with 100 μl of 0.9% NaCl solution each time. The measurement of the bound radioactivity is carried out by means of a scintillation measuring instrument (Topcount NXT, Perkin-Elmer).
The full value used is the inhibitor-free kinase reaction. This should be approximately in the range 3000-4000 cpm. The pharmacological zero value used is staurosporin in a final concentration of 0.1 μM. The inhibitory values (IC50) are determined using the program RS1_MTS ( ).
Kinase reaction conditions per well:
0.15 μg of CHKtide ([…])
50 μl total volume (1-fold assay buffer reaction conditions)
Solutions used: • assay buffer:
0.1 mM Titriplex VI (EGTA
10 mM magnesium acetate 0.1% mercaptoethanol
pH=7.5 (to be set using hydrochloric acid) Bovine serum albumin (final concentration 0.1%) is not added until just before use. • stop solution:
0.2 M TitriplexIII (EDTA)
• γ^33P-ATP (Perkin-Elmer) • CHK1 kinase preparations: specific activity>50 U/mg • CHKtide solution: biotinylated peptide substrate (Biotrend) stored as stock solution (concentration 0.15 mg/ml).

| Structure (SMILES) | IC50 |
| --- | --- |
| O=c1c(Nc2ccc3[nH]cnc3c2)c(N2CCc3ccc(O)cc3C2)c1=O [Compound A82, 3-(1H-benzimidazol-5-ylamino)-4-(7-hydroxy-3,4-dihydro-1H-isoquinolin-2-yl)cyclobut-3-ene-1,2-dione] | > 1 µM |
| COc1ccc(F)c(CNc2c(Nc3ccc4[nH]cnc4c3)c(=O)c2=O)c1 [Compound A85, 3-(1H-benzimidazol-5-ylamino)-4-(2-fluoro-5-methoxybenzylamino)cyclobut-3-ene-1,2-dione] | > 1 µM |
| O=c1c(NCc2ccc3[nH]cnc3c2)c(Nc2ccc3[nH]cnc3c2)c1=O [Compound A88, 3-(1H-benzimidazol-5-ylamino)-4-[(1H-benzimidazol-5-ylmethyl)amino]cyclobut-3-ene-1,2-dione] | > 1 µM |
| Cc1nc2cc(Nc3c(NCc4cccc(O)c4)c(=O)c3=O)ccc2[nH]1 [Compound A89, 3-(3-hydroxybenzylamino)-4-(2-methyl-1H-benzimidazol-5-ylamino)cyclobut-3-ene-1,2-dione] | > 1 µM |
| O=c1c(NCc2ccc3[nH]c(C(F)(F)F)nc3c2)c(Nc2ccc3[nH]cnc3c2)c1=O [Compound A90, 3-(1H-benzimidazol-5-ylamino)-4-[(2-trifluoromethyl-1H-benzimidazol-5-ylmethyl)-amino]cyclobut-3-ene-1,2-dione] | > 1 µM |
| COc1ccc(CNc2c(Nc3ccc4[nH]cnc4c3)c(=O)c2=O)cc1O [Compound A91, 3-(1H-benzimidazol-5-ylamino)-4-(3-hydroxy-4-methoxybenzylamino)cyclobut-3-ene-1,2-dione] | > 1 µM |
| CCOc1ccc(O)cc1CNc1c(Nc2ccc3[nH]cnc3c2)c(=O)c1=O [Compound A93, 3-(1H-benzimidazol-5-ylamino)-4-(2-ethoxy-5-hydroxybenzylamino)cyclobut-3-ene-1,2-dione] | > 1 µM |
| O=c1c(NCc2cc(O)cc(O)c2)c(Nc2ccc3[nH]cnc3c2)c1=O [Compound A94, 3-(1H-benzimidazol-5-ylamino)-4-(3,5-di-hydroxybenzylamino)cyclobut-3-ene-1,2-dione] | < 1 µM |
| CN(C)Cc1c[nH]c2cc(CNc3c(Nc4ccc5[nH]cnc5c4)c(=O)c3=O)ccc12 [Compound A96, 3-(1H-benzimidazol-5-ylamino)-4-[(3-dimethylaminomethyl-1H-indol-6-ylmethyl)-amino]cyclobut-3-ene-1,2-dione] | > 1 µM |
| Cc1nc2cc(Nc3c(NCc4cccc(O)c4)c(=O)c3=O)ccc2s1 [Compound A98, 3-(3-hydroxybenzylamino)-4-(2-methylbenzo-thiazol-5-ylamino)cyclobut-3-ene-1,2-dione] | > 1 µM |
| O=c1c(NCc2ccc3[nH]cc(-c4ccncc4)c3c2)c(Nc2ccc3[nH]cnc3c2)c1=O [Compound A102, 3-(1H-benzimidazol-5-ylamino)-4-[(3-pyridin-4-yl-1H-indol-5-ylmethyl)amino]cyclobut-3-ene-1,2-dione] | > 1 µM |
| COCCOc1cccc(CNc2c(Nc3ccc4[nH]cnc4c3)c(=O)c2=O)c1 [Compound A106, 3-(1H-benzimidazol-5-ylamino)-4-[3-(2-methoxyethoxy)benzylamino]cyclobut-3-ene-1,2-dione] | > 1 µM |
| O=c1c(NCc2cccc(OCCO)c2)c(Nc2ccc3[nH]cnc3c2)c1=O [Compound A107, 3-(1H-benzimidazol-5-ylamino)-4-[3-(2-hydroxyethoxy)benzylamino]cyclobut-3-ene-1,2-dione] | > 1 µM |
| CN(C)CCOc1cccc(CNc2c(Nc3ccc4[nH]cnc4c3)c(=O)c2=O)c1 [Compound A108, 3-(1H-benzimidazol-5-ylamino)-4-[3-(2-di-methylaminoethoxy)benzylamino]cyclobut-3-ene-1,2-dione] | > 1 µM |
| CC(=O)NCCOc1cccc(CNc2c(Nc3ccc4[nH]cnc4c3)c(=O)c2=O)c1 [Compound A109, 3-(1H-benzimidazol-5-ylamino)-4-[3-(2-acetamidoethoxy)benzylamino]cyclobut-3-ene-1,2-dione] | > 1 µM |

More lines, now with the values ahead:

| IC50 | Structure (SMILES) |
| --- | --- |
| > 1 µM | COc1cccc([C@H](C)Nc2c(Nc3ccc4[nH]cnc4c3)c(=O)c2=O)c1 [Compound A83, 3-(1H-benzimidazol-5-ylamino)-4-[(S)-1-(3-methoxyphenyl)ethylamino]cyclobut-3-ene-1,2-dione] |
| < 1 µM | O=c1c(NCc2ccc(F)c(O)c2)c(Nc2ccc3[nH]cnc3c2)c1=O [Compound A84, 3-(1H-benzimidazol-5-ylamino)-4-(4-fluoro-3-hydroxybenzylamino)cyclobut-3-ene-1,2-dione] |
| > 1 µM | O=c1c(NCc2cccc(O)c2Cl)c(Nc2ccc3[nH]cnc3c2)c1=O [Compound A86, 3-(1H-benzimidazol-5-ylamino)-4-(2-chloro-3-hydroxybenzylamino)cyclobut-3-ene-1,2-dione] |
| < 1 µM | O=c1c(NCc2ccc(O)c(O)c2)c(Nc2ccc3[nH]cnc3c2)c1=O [Compound A87, 3-(1H-benzimidazol-5-ylamino)-4-(3,4-di-hydroxybenzylamino)cyclobut-3-ene-1,2-dione] |
| > 1 µM | Cc1ccc(CNc2c(Nc3ccc4[nH]cnc4c3)c(=O)c2=O)cc1O [Compound A92, 3-(1H-benzimidazol-5-ylamino)-4-(3-hydroxy-4-methylbenzylamino)cyclobut-3-ene-1,2-dione] |
| > 1 µM | NC(=O)c1cccc(CNc2c(Nc3ccc4[nH]cnc4c3)c(=O)c2=O)c1 [Compound A95, 3-(1H-benzimidazol-5-ylamino)-4-(3-amino-carbonylbenzylamino)cyclobut-3-ene-1,2-dione] |
| > 1 µM | Cc1c(O)cccc1CNc1c(Nc2ccc3[nH]cnc3c2)c(=O)c1=O [Compound A97, 3-(1H-benzimidazol-5-ylamino)-4-(3-hydroxy-2-methylbenzylamino)cyclobut-3-ene-1,2-dione] |
| > 1 µM | O=C(O)CC(Nc1c(Nc2ccc3[nH]cnc3c2)c(=O)c1=O)c1cccc(O)c1 (stereo not shown) [Compound A99, 3-[2-(1H-benzimidazol-5-ylamino)-3,4-dioxo-cyclobut-1-enylamino]-3-(3-hydroxyphenyl)-propionic acid] |
| > 1 µM | CCOC(=O)CC(Nc1c(Nc2ccc3[nH]cnc3c2)c(=O)c1=O)c1cccc(O)c1 (stereo not shown) [Compound A100, ethyl 3-[2-(1H-benzimidazol-5-ylamino)-3,4-dioxocyclobut-1-enylamino]-3-(3-hydroxy-phenyl)propionate] |
| < 1 µM | COC(=O)CC(Nc1c(Nc2ccc3[nH]cnc3c2)c(=O)c1=O)c1cccc(O)c1 (stereo not shown) [Compound A101, methyl 3-[2-(1H-benzimidazol-5-ylamino)-3,4-dioxocyclobut-1-enylamino]-3-(3-hydroxy-phenyl)propionate] |
| > 1 µM | O=c1c(NCc2cccc(O)c2F)c(Nc2ccc3[nH]cnc3c2)c1=O [Compound A103, 3-(1H-benzimidazol-5-ylamino)-4-(2-fluoro-3-hydroxybenzylamino)cyclobut-3-ene-1,2-dione] |
| > 1 µM | CCOc1cccc(CNc2c(Nc3ccc4[nH]cnc4c3)c(=O)c2=O)c1 [Compound A104, 3-(1H-benzimidazol-5-ylamino)-4-(3-ethoxy-benzylamino)cyclobut-3-ene-1,2-dione] |
| > 1 µM | O=C(CC(Nc1c(Nc2ccc3[nH]cnc3c2)c(=O)c1=O)c1cccc(O)c1)N1CCOCC1 (stereo not shown) [Compound A105, 3-(1H-benzimidazol-5-ylamino)-4-[1-(3-hydroxyphenyl)-3-morpholin-4-yl-3-oxo-propylamino]cyclobut-3-ene-1,2-dione] |

Source: patent US20080234266A1, “Squaric Acid Derivatives II” (priority 2005, published 2008)
